Test results published in patent publication US5478841A, “Fluorinated quinolones, process for their preparation and pharmaceutical preparations containing same” (Bouchara S.A., priority 1992, dated 1995).
≈ marks a conversion by molar mass, not a printed value.

Experiments:
E. coli ATCC 25922 = test: MIC/MBC, microdilution in Mueller-Hinton broth, E. coli; assay type: cell-based; settings: Escherichia coli; for MIC: ATCC25922, 18 h at 37° C., about 10^6 bacteria/ml, read-out: MINIMAL INHIBITORY CONCENTRATION (MIC); for MBC: ATCC25922, read-out: MINIMAL BACTERICIDAL CONCENTRATION (MBC)
Procedure: (§1) The products were tested vis-a-vis 7 reference strains
Escherichia coli ATCC 25922
(§2) The preparation of these mother solutions produced, varied according to the molecules as a function of solubility criteria.
(§3) The inoculation is carried out by adding to each cupule 10 μl of a dilution in physiological water of an 18 hour broth of heart/brain broth such that each cupule contains about 10^6 bacteria/ml.
(§4) The minimal inhibitory concentration is read as the first concentration of antibiotic giving no culture which is macroscopically visible after incubation for 18 hours at 37° C.

S. aureus CB-951 = test: MIC/MBC, microdilution in Mueller-Hinton broth, S. aureus CB-951; assay type: cell-based; settings: Staphylococcus aureus, CB951, S. aureus CB-951, methicillino resistant, pefloxacino resistant
Procedure: as §1
Staphylococcus aureus CB 951
as §2, §3, §4

S. aureus ATCC 25923 = test: MIC/MBC, microdilution in Mueller-Hinton broth, S. aureus ATCC 25923; assay type: cell-based; settings: Staphylococcus aureus; for MIC: ATCC25923, 18 h at 37° C., about 10^6 bacteria/ml, read-out: MINIMAL INHIBITORY CONCENTRATION (MIC); for MBC: ATCC25923, read-out: MINIMAL BACTERICIDAL CONCENTRATION (MBC)
Procedure: as §1
Straphylococcus aureus ATCC 25923
as §2, §3, §4

P. aeruginosa ATCC 22853 = test: MIC/MBC, microdilution in Mueller-Hinton broth, P. aeruginosa; assay type: cell-based; settings: Pseudomonas aeruginosa; for MIC: ATCC22853, 18 h, read-out: MINIMAL INHIBITORY CONCENTRATION (MIC); for MBC: ATCC22853, read-out: MINIMAL BACTERICIDAL CONCENTRATION (MBC)
Procedure: as §1
Pseudomonas aeruginosa ATCC 22853
as §2, §3, §4

solubility in water = assay type: physicochemical; settings: hydrochloride, pale yellow crystals
[1] = system: Acinetobacter Baumanii ATCC 17904; test: MIC/MBC, microdilution in Mueller-Hinton broth, Acinetobacter; assay type: cell-based; settings: Acinetobacter baumannii
Procedure: as §1
Acinetobacter calcoaceticus variety anitratum ATCC 17903
as §2, §3, §4

S. faecalis = test: MIC/MBC, microdilution in Mueller-Hinton broth, S. faecalis; assay type: cell-based, Streptococcus faecalis; settings: Enterococcus faecalis, ATCC25922, read-out: MINIMAL BACTERICIDAL CONCENTRATION (MBC)
Procedure: (§5) The products were tested vis-a-vis 7 reference strains […]
as §2, §3, §4

S. faecalis ATCC 25922 = test: as above; assay type: cell-based, Streptococcus faecalis; settings: Enterococcus faecalis, ATCC25922, 18 h, read-out: MINIMAL INHIBITORY CONCENTRATION (MIC)
Procedure: as §5, §2, §3, §4

Row | Structure (SMILES) | MIC (E. coli ATCC 25922) [µg/mL] | MBC (E. coli ATCC 25922) [µg/mL] | MIC (S. aureus CB-951; 18 h at 37° C., about 10^6 bacteria/ml, read-out: MINIMAL INHIBITORY CONCENTRATION (MIC)) [µg/mL] | MBC (S. aureus CB-951; read-out: MINIMAL BACTERICIDAL CONCENTRATION (MBC)) [µg/mL] | MIC (S. aureus ATCC 25923) [µg/mL] | MBC (S. aureus ATCC 25923) [µg/mL] | MIC (P. aeruginosa ATCC 22853) [µg/mL] | MBC (P. aeruginosa ATCC 22853) [µg/mL] | solubility in water (solubility in water) | MIC ([1]; ATCC17904, 18 h, read-out: MINIMAL INHIBITORY CONCENTRATION (MIC)) [µg/mL] | MBC ([1]; ATCC17904, read-out: MINIMAL BACTERICIDAL CONCENTRATION (MBC)) [µg/mL] | MBC (S. faecalis) [µg/mL] | MIC (S. faecalis ATCC 25922) [µg/mL]
1 | NCC1CCN(c2c(F)cc3c(=O)c(C(=O)O)cn(C4CC4)c3c2F)CC1 [Compound 1, 6,8-difluoro-7-[(4-aminomethyl)-1-piperdinyl]-1-(1-cyclopropyl)-4-oxo-1,4-dihydroquinolinyl-3-carboxylic acid] | 2 (≈ 5.3 µM) | 4 (≈ 10.6 µM) | 0.25 (≈ 0.662 µM) | 0.25 (≈ 0.662 µM) | 0.06 (≈ 0.159 µM) | 0.06 (≈ 0.159 µM) | > 16 | > 16 | moderately soluble in water | 0.03 (≈ 0.0795 µM) | 0.03 (≈ 0.0795 µM) | 1 (≈ 2.65 µM) | 1 (≈ 2.65 µM)
2 | NCC1CCN(c2cc3c(cc2F)c(=O)c(C(=O)O)cn3C2CC2)CC1 [Compound 5, 6-fluoro-1-cyclopropyl-7-((4-aminomethyl)-1-piperidinyl)-quinolone-3-carboxylic acid] | 0.25 (≈ 0.696 µM) | 0.5 (≈ 1.39 µM) |  |  | 0.25 (≈ 0.696 µM) | 0.5 (≈ 1.39 µM) |  |  |  |  |  |  | 
3 | CC(C)n1cc(C(=O)O)c(=O)c2cc(F)c(N3CCC(CN)CC3)c(F)c21 [Compound 7, 6,8-difluoro-1-isopropyl-7-((4-aminomethyl)-1-piperidinyl)-quinolone-3-carboxylic acid] | 1.6 (≈ 4.22 µM) | 1.6 (≈ 4.22 µM) |  |  | 3.2 (≈ 8.43 µM) | 6.4 (≈ 16.9 µM) | 25.6 (≈ 67.5 µM) | > 51.2 |  |  |  | 25.6 (≈ 67.5 µM) | 3.2 (≈ 8.43 µM)
